Two compounds from patent publication US9604975B2, “Indolyl-pyridone derivatives having checkpoint kinase 1 inhibitory activity” (Vernalis (R&D) Ltd., priority 2009, dated 2017) can be followed below.

Where only a bound is given, the exact number is not on record here.

One assay concerns the target T1, CHK1 (Homo sapiens, UniProt O14757).
T1 construct: His; purchased Invitrogen
T1 sequence (O14757 1-476): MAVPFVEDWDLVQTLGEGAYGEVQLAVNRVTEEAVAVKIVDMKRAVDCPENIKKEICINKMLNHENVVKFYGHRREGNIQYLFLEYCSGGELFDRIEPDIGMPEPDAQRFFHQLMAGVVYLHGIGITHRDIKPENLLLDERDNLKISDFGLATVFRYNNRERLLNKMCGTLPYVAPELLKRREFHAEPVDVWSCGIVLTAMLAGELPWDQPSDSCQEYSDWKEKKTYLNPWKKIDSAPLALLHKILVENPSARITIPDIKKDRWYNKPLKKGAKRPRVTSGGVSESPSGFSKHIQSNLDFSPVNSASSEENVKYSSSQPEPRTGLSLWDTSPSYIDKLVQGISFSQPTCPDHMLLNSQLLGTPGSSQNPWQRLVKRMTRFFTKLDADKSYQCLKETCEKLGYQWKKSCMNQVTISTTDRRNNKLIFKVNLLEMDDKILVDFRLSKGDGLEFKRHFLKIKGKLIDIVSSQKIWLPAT
Description: CHK1 Enzyme Assay (phosphorylation of Chktide peptide, 33P-ATP filter assay). The settings on record: 12.5 nM His-CHK1, 0.01 mM ATP, 40 minutes at 30° C.; read-out: CHK1 Enzyme Activity (IC50 range). The assay is classed as biochemical. The procedure, abridged:
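His-CHK1 (12.5 nM) phosphorylating 14.8 μM Chktide with 0.01 mM ATP plus 33P-γ-ATP, in 50 mM Hepes-NaOH pH 7.5 with 0.1 mg/mL BSA. Incubated with inhibitor for 40 min at 30 °C. Stopped with phosphoric acid; phosphopeptide captured on filter and counted by scintillation.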

The next assay deals with HT29 cells. Description: CHK1 Cellular Assay - Gemcitabine EC50 Assay. The assay is classed as cell-based. The settings on record: HT29 cells, in the presence of gemcitabine at 10 nM, 72 hours, SRB staining; read-out: CHK1 Cellular Activity (EC50 range). How it is done:
The gemcitabine EC50 assay was developed as a rapid method for screening CHK1 inhibitors to determine their relative cell activity. This assay utilises a feature of the effect of CHK1 inhibitors on gemcitabine toxicity. In the absence of a CHK1 inhibitor, gemcitabine acts predominantly as an anti-metbolite and therefore induces very little cell death, even at high concentrations. This can be as high as 70-80% survival at concentrations in excess of 1 μM. However, in the presence of a CHK1 inhibitor, the mechanism of action of gemcitabine switches to a more classical cytotoxic mode of action. For example, the fraction of cells surviving can be reduced to around 30% and below. Concentrations of gemcitabine can be selected that in the absence of a CHK1 inhibitor, have no effect on cell survival but in the presence of a CHK1 inhibitor are highly cytotoxic. 10000 HT29 cells were plated per well of a 96 well plate and allowed to attach at 37° C. in a 5% CO2 humidified incubator for 18 hours. CHK1 inhibitors were then titrated in the presence of 10, 15 and 20 nM gemcitabine for 72 hours and the EC50 determined by staining with sulforhodamine B (SRB) and determining the absorbance at 540 nm.

On to `C[C@@H]1CN(Cc2ccc3[nH]c(-c4cc(NC(=O)c5cnn([C@H](C)c6ccccc6)c5)c[nH]c4=O)cc3c2)C[C@H](C)O1` [Example 166], for which the IC50 at CHK1 was under 100 nM. In the assay with HT29 cells, the EC50 was under 100 nM.

For `CC(C)(COc1ccc2[nH]c(-c3cc(NC(=O)c4cnn(Cc5ccccc5)c4)c[nH]c3=O)cc2c1)CN1CCCC1` [Example 180, 1-Benzyl-1H-pyrazole-4-carboxylic acid {5-[5-(2,2-dimethyl-3-pyrrolidin-1-yl-propoxy)-1H-indol-2-yl]-6-oxo-1,6-dihydro-pyridin-3-yl}-amide], the IC50 at CHK1 is under 100 nM. In the assay with HT29 cells, the EC50 was under 100 nM.

By IC50 is commonly meant the concentration at which inhibition is half-maximal. As a reminder, the EC50 is the concentration that produces a half-maximal response.
